This is an account of results in ChEMBL document CHEMBL1201862, “PubChem BioAssay data set” (2004).

Some test systems named below: M19-MEL; DMS-114; KM-20L2; XF498; SNB-78; DLD-1; RXF 631; LXFL 529; HOP-18.
What all share (test): NCI tumour cell line growth inhibition, 48 h

Molecules are shown by their SMILES.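 Test compounds were applied to cells in 96-well plates for 48 hours at 5 doses. At the GI50, growth is halved.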 Activity calls are given as the source filed them. No stated cut-off is given here; in the data, active = GI50 up to about 1.1 µM and inactive = higher. Where only a bound is given, the exact number is not on record here.

`COc1ccc(C(=O)C(CO)Oc2ccccc2OC)cc1OC` (stereo unspecified): the GI50 with M19-MEL, in the test with DMS-114, with KM-20L2, in the test on XF498, with SNB-78 and in the test on DLD-1 was > 100 µM (inactive) in each case. The GI50 with RXF 631 and in the test on LXFL 529 was > 100 µM (inactive) throughout.
As for `O=S1(=O)[C@H](c2ccccc2)c2c(-c3ccccc3)sc(-c3ccccc3)c2[C@@H]1c1ccccc1`, the GI50 with M19-MEL was > 100 µM (inactive); in the test on DMS-114, > 100 µM (inactive); in the test with KM-20L2, > 100 µM (inactive); with HOP-18 it was 77.1 µM (inactive); with DLD-1, > 100 µM (inactive); with LXFL 529 it was 88.1 µM (inactive).
Take `O=C(CSC(=S)N1CCCCC1)Nc1nc2c(s1)CCCC2`: the GI50 in the test with M19-MEL is 32.9 µM (inactive); in the test on DMS-114 it was 53.2 µM (inactive); in the test with KM-20L2 it was 46 µM (inactive); in the test with XF498, 19.3 µM (inactive); with SNB-78, > 100 µM (inactive); with DLD-1, 26.9 µM (inactive). Further, in the test on LXFL 529, the GI50 is 32.1 µM (inactive).
Take `C=C(C)C12CC3CC(/C(=N/O)C(C1)/C3=N\O)[C@@]2(C)O` (stereo partly specified): the GI50 with M19-MEL, in the test with DMS-114, in the test on KM-20L2, in the test on SNB-78, in the test with DLD-1 and in the test with LXFL 529 was > 100 µM (inactive) in each case.
`C=C1C(=O)OC2CC3(C)OC3CC/C(C)=C/C(OC(C)=O)C12` (stereo unspecified): the GI50 was 8.04 µM (inactive) in the test on M19-MEL; 7.4 µM (inactive) in the test on DMS-114; 6.55 µM (inactive) with KM-20L2; 2 µM (inactive) in the test with XF498; 10.4 µM (inactive) in the test on HOP-18; 9.44 µM (inactive) in the test on SNB-78. The values for the GI50 in the test with DLD-1 and in the test with LXFL 529 were 2.75 µM (inactive) and 2.14 µM (inactive), respectively.
With `COc1ccc(-c2oc(/C=N/NC(N)=S)c([N+](=O)[O-])c2-c2ccc(OC)c(OC)c2)cc1OC`, the GI50 is 24.2 µM (inactive) with M19-MEL; 19.4 µM (inactive) in the test with DMS-114; 18.2 µM (inactive) in the test on KM-20L2; 26.7 µM (inactive) in the test with XF498; 24.3 µM (inactive) with DLD-1; 30.4 µM (inactive) with RXF 631. For the same molecule, the GI50 with LXFL 529 was 20.3 µM (inactive).
With `O=C(c1ccc(Cl)cc1)c1ccc(OCCSCCCCCCCCCCSCCOc2ccc(C(=O)c3ccc(Cl)cc3)cc2)cc1`, the GI50 with M19-MEL, in the test with KM-20L2, in the test on SNB-78, with DLD-1 and in the test with RXF 631 was > 100 µM (inactive) throughout.
For `N=C(N)N/N=C/c1oc(-c2ccc(S(=O)(=O)O)o2)c(-c2ccc(S(=O)(=O)O)o2)c1[N+](=O)[O-]`, the GI50 in the test on M19-MEL, in the test on DMS-114, in the test with KM-20L2, in the test on HOP-18, in the test with DLD-1 and in the test on LXFL 529 was > 100 µM (inactive) in each case.
Take `COc1cc(OC(C)=O)cc2c(OC(C)=O)ccc(OC(C)=O)c12`: the GI50 in the test on KM-20L2, with SNB-78 and in the test with LXFL 529 was > 100 µM (inactive) throughout.
For the molecule `COc1cccc(/C=N\NC(=O)C(C)SC(C)C(=O)N/N=C/c2cccc(OC)c2)c1` (stereo unspecified), the GI50 was > 63.4 µM (inactive) in the test on M19-MEL; 19.4 µM (inactive) with DMS-114; 47 µM (inactive) with KM-20L2; 53.1 µM (inactive) in the test on XF498; 36 µM (inactive) in the test with SNB-78; 58.2 µM (inactive) in the test on DLD-1. The GI50 in the test with LXFL 529 is 33.9 µM (inactive).
Turning to `Cc1cc(NC(=O)NC(=O)c2ccccc2N)ccc1Oc1ncc(Br)cn1`, the GI50 with M19-MEL is 0.0231 µM (active); in the test with DMS-114, < 0.01 µM (active); in the test with KM-20L2, 0.016 µM (active); with XF498 it was 0.0334 µM (active); with HOP-18, 28.8 µM (inactive); with DLD-1 it was < 0.0161 µM (active). For the same molecule, the GI50 with LXFL 529 is < 0.0179 µM (active).
With `CCOC(=O)c1cccc(=O)c(C(=O)OCC)c1`, the GI50 was 53.1 µM (inactive) with M19-MEL; 46.8 µM (inactive) in the test on DMS-114; 97.3 µM (inactive) in the test with KM-20L2; 46.1 µM (inactive) in the test on XF498; 57.3 µM (inactive) in the test on SNB-78; 40 µM (inactive) in the test on DLD-1. For the same molecule, the GI50 was 67 µM (inactive) in the test on RXF 631 and 38.3 µM (inactive) in the test on LXFL 529.
With `COc1cc(Oc2c(O)c(C)c(OC)c(C(C)=O)c2O)c(C(C)=O)c(O)c1C`, the GI50 with M19-MEL was 55.5 µM (inactive); with DMS-114, 47.5 µM (inactive); in the test with KM-20L2 it was 63.8 µM (inactive); in the test with XF498, 59.6 µM (inactive); in the test with SNB-78, > 100 µM (inactive); in the test with DLD-1 it was 66.7 µM (inactive). Besides, the results for the GI50 in the test on RXF 631 and in the test with LXFL 529 were > 100 µM (inactive) and 49.5 µM (inactive), respectively.
As for `O=C1NC2(CCCCC2)C2CCCCC=C12` (stereo unspecified), the GI50 in the test with M19-MEL, in the test with DMS-114, in the test on XF498, in the test on HOP-18, in the test with SNB-78 and in the test with DLD-1 was > 100 µM (inactive) throughout. In addition, the GI50 in the test on LXFL 529 was > 100 µM (inactive).
In the case of `O=C(O)C1OC(n2cc(F)c(=O)[nH]c2=O)CC1O` (stereo unspecified), the GI50 is > 83.2 µM (inactive) with M19-MEL; > 92.3 µM (inactive) in the test with DMS-114; 23.8 µM (inactive) in the test with KM-20L2; > 68.2 µM (inactive) in the test on XF498; 40.6 µM (inactive) in the test with HOP-18; > 26.2 µM (inactive) in the test on SNB-78. The results for the GI50 with DLD-1 and in the test with LXFL 529 were > 100 µM (inactive) and 8.99 µM (inactive), respectively.
In the case of `CCCCn1c(-c2ccccc2)cs/c1=N\NC(=O)Cn1c(C)nc2ccccc21`, the GI50 is 30.4 µM (inactive) in the test on M19-MEL; 84.9 µM (inactive) in the test with KM-20L2; 31.9 µM (inactive) with XF498; > 100 µM (inactive) in the test with HOP-18; > 100 µM (inactive) in the test with SNB-78; > 100 µM (inactive) with DLD-1. Also, the GI50 with LXFL 529 is 25.1 µM (inactive).
Regarding `CNC(=O)OCc1cc2ccncc2c2c1[nH]c1ccccc12`, the GI50 in the test with M19-MEL is > 100 µM (inactive); with DMS-114, > 100 µM (inactive); in the test on KM-20L2, > 100 µM (inactive); with XF498, > 45.1 µM (inactive); in the test on HOP-18, > 100 µM (inactive); with SNB-78 it was > 72.6 µM (inactive). Further, the GI50 in the test on DLD-1 was 5.89 µM (inactive); with LXFL 529, > 39.6 µM (inactive).
Consider `CC(C)(C)OC(=O)NC1CCC[C@H]1O` (stereo partly specified), for which the GI50 in the test on M19-MEL, in the test on DMS-114, with KM-20L2, with XF498, with SNB-78 and in the test on DLD-1 was > 100 µM (inactive) throughout. Besides, the GI50 with RXF 631 and in the test with LXFL 529 was > 100 µM (inactive) in each case.
On to `CCOC(=O)c1ccc(N[C@@H]2c3cc4c(cc3C(C3=CC(=O)C(=O)C(OC)=C3)[C@H]3C(=O)OCC32)OCO4)cc1` (stereo partly specified), for which the GI50 is 6.1 µM (inactive) in the test on M19-MEL; 1.79 µM (inactive) in the test on DMS-114; 6.37 µM (inactive) in the test with KM-20L2; 1.48 µM (inactive) in the test on XF498; 8.69 µM (inactive) in the test with SNB-78; 1.91 µM (inactive) in the test with RXF 631. For the same molecule, the GI50 in the test on LXFL 529 was 6.5 µM (inactive).
